These are literature values, as cited in patent publication US6955827B2, “Method of controlling release of antimicrobial agents in chewing gum” (Wm. Wrigley Jr. Company, priority 1997, dated 2005).

For the series the following is noted: at 25° C.

With `CCCCCCCCCCCCCCCC[n+]1ccccc1` [Cetylpyridinium chloride, cetylpyridinium chloride], the water solubility is reported as 33%.

In the case of `N=C(NCCCCCCNC(=N)NC(=N)Nc1ccc(Cl)cc1)NC(=N)Nc1ccc(Cl)cc1.O=C(O)[C@H](O)[C@@H](O)[C@H](O)[C@H](O)CO.O=C(O)[C@H](O)[C@@H](O)[C@H](O)[C@H](O)CO` [Chlorhexidine digluconate, chlorhexidine digluconate], the water solubility is 50%.

On to `CCCCCCc1ccc(O)cc1O` [Hexylresorcinol, hexylresorcinol], for which the water solubility result is “about 0.05%”.

For `Oc1cc(Cl)ccc1Oc1ccc(Cl)cc1Cl` [Triclosan, 2,4,4-trichloro-2-hydroxydiphenyl ether], the water solubility result is “about 0.05%”.
